Results published in US10968210B2, “Diamino-alkylamino-linked arylsulfonamide compounds with selective activity in voltage-gated sodium channels” (Merck Sharp & Dohme Corp., priority 2016, dated 2021).

How the values were obtained:
[1] = molecular target: T1, human Nav 1.7 channels stably expressed in HEK 293 cells (Homo sapiens, UniProt Q15858); experiment: IonWorks Quattro automated patch-clamp, inactivated state block of Nav 1.7; assay type: cell-based; details: double-pulse protocol, HEK 293 cells held at -100 mV, read-out: potency for the Nav 1.7 sodium ion channel (IC50, IonWorks)
T1 construct: expressed in transfected cells; host or cells: HEK 293
Experimental: (§1) IonWorks® Experimental Procedure
(§2) Compounds were tested on human Nav 1.7 and Nav 1.5 channels stably expressed in HEK 293 cells. Sodium current measurements on IonWorks Quattro: An automated patch-clamp assay on the IonWorks Quattro platform (Molecular Devices) was used to measure state-dependent inhibition of human Nav 1.7 and Nav 1.5 channels. Cells were sealed on a planar substrate using the Population Patch Plate (PPC) technology. Electrical access was obtained using both nystatin and amphotericin. A double-pulse protocol was used for the determination of IC50 values for inactivated state block. Nav 1.7 and Nav 1.5 expressing cells were voltage clamped at −100 mV and −110 mV, respectively. A depolarizing prepulse to −10 mV (Nav 1.7) or −30 mV (Nav 1.5) for 1000 ms followed by a 10 ms repolarization to ˜100 mV (Nav1.7) or −110 mV (Nav 1.5) was given to generate fractional channel inactivation of ˜50%, followed by a 10 ms test pulse to −10 mV (Nav 1.7) or −30 mV (Nav 1.5) to measure peak current in control conditions and after compound addition. The following recording solutions were used (mM). External: 150 NaCl, 2 CaCl2, 5 KCl, 1 Mg Cl2, 10 HEPES, 12 Dextrose; internal: 120 CsF, 30 CsCl, 10 EGTA, 5 HEPES, 5 NaF, 2 MgCl2.
(§3) For all electrophysiology experiments, offline analysis was used to determine percent inhibition as a function of drug concentration. IC50 values were determined by fitting to the Hill equation.
(§4) The various compounds in Examples 1 through 4 and Tables 1 through 3 exemplified above were assayed for activity and selectivity using the foregoing IonWorks® technique. The results are reported in the following paragraph in a format expressing the identification of the compound with reference Example and compound (e.g. Ex 1-9 is Example 1, compound 9) followed by the observed potency in nM and the ratio of Nav1.7 potency: Nav1.5 potency as described here. Thus, Ex1-9: 1.7=65/ratio=641 identifies compound Example 1, compound 9 as having 65 nM potency for the Nav 1.7 sodium ion channel (as measured by IonWorks®) and a ratio of 641 Nav 1.7: Nav 1.5 potency, determined by IonWorks® measurement.

[2] = molecular target: T2, human Nav 1.5 channels stably expressed in HEK 293 cells (Homo sapiens, UniProt Q14524); experiment: IonWorks Quattro automated patch-clamp, inactivated state block of Nav 1.5 (reported as ratio to Nav 1.7 potency); assay type: cell-based; details: selectivity for Nav 1.7 over Nav 1.5, both by IonWorks
T2 construct: expressed in transfected cells; host or cells: HEK 293
Experimental: as §1, §2, §3, §4

T1 sequence (Q15858 whole entry): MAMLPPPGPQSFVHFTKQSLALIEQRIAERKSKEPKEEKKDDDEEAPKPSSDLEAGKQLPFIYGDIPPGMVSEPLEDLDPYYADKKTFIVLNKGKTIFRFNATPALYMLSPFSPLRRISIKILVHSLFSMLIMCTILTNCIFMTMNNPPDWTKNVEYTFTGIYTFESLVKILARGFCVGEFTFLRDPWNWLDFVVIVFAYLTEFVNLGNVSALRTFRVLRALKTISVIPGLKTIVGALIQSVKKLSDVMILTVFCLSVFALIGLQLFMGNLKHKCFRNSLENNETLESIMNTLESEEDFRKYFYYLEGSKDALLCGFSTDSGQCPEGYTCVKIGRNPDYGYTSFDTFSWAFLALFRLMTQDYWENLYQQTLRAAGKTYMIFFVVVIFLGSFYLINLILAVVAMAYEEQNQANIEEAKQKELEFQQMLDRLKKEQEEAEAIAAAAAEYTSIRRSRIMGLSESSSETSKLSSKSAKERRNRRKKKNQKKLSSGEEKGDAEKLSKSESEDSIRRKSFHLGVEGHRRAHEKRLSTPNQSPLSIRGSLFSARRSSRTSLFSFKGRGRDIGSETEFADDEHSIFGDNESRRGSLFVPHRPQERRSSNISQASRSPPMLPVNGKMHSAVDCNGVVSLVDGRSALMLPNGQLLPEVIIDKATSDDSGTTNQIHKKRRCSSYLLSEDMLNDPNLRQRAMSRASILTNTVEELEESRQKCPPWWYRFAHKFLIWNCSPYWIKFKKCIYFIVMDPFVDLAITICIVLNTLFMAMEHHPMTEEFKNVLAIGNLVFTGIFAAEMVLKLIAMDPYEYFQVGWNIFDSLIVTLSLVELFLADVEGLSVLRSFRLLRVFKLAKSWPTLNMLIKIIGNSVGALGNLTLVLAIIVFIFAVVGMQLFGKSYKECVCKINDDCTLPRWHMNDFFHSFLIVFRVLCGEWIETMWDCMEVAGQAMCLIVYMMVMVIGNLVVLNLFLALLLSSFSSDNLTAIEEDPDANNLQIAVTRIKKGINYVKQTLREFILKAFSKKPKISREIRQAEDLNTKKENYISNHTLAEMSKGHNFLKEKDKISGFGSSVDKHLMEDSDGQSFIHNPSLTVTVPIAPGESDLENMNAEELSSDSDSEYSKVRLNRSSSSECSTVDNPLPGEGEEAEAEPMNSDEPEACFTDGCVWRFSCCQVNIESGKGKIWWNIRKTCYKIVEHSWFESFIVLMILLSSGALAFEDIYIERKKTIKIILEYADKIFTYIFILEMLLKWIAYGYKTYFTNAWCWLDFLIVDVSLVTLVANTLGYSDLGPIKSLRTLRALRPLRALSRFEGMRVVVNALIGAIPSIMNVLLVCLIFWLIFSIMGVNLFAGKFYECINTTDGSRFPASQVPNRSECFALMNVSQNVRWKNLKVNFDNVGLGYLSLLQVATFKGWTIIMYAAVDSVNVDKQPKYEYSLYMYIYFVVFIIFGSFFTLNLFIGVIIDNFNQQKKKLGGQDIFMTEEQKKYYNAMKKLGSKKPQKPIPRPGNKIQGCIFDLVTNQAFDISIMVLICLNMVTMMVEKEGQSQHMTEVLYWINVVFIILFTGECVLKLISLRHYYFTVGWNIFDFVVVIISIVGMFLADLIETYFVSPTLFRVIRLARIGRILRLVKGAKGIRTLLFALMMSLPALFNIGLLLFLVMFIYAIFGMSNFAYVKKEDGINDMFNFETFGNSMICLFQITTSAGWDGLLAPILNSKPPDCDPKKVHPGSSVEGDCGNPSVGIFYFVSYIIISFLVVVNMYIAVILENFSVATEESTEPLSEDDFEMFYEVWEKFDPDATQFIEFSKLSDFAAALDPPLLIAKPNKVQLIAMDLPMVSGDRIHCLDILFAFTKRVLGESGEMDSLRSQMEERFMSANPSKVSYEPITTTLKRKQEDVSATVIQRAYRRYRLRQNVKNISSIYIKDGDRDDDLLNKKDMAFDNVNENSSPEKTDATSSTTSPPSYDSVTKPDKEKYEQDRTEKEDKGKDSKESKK
T2 sequence (Q14524 whole entry): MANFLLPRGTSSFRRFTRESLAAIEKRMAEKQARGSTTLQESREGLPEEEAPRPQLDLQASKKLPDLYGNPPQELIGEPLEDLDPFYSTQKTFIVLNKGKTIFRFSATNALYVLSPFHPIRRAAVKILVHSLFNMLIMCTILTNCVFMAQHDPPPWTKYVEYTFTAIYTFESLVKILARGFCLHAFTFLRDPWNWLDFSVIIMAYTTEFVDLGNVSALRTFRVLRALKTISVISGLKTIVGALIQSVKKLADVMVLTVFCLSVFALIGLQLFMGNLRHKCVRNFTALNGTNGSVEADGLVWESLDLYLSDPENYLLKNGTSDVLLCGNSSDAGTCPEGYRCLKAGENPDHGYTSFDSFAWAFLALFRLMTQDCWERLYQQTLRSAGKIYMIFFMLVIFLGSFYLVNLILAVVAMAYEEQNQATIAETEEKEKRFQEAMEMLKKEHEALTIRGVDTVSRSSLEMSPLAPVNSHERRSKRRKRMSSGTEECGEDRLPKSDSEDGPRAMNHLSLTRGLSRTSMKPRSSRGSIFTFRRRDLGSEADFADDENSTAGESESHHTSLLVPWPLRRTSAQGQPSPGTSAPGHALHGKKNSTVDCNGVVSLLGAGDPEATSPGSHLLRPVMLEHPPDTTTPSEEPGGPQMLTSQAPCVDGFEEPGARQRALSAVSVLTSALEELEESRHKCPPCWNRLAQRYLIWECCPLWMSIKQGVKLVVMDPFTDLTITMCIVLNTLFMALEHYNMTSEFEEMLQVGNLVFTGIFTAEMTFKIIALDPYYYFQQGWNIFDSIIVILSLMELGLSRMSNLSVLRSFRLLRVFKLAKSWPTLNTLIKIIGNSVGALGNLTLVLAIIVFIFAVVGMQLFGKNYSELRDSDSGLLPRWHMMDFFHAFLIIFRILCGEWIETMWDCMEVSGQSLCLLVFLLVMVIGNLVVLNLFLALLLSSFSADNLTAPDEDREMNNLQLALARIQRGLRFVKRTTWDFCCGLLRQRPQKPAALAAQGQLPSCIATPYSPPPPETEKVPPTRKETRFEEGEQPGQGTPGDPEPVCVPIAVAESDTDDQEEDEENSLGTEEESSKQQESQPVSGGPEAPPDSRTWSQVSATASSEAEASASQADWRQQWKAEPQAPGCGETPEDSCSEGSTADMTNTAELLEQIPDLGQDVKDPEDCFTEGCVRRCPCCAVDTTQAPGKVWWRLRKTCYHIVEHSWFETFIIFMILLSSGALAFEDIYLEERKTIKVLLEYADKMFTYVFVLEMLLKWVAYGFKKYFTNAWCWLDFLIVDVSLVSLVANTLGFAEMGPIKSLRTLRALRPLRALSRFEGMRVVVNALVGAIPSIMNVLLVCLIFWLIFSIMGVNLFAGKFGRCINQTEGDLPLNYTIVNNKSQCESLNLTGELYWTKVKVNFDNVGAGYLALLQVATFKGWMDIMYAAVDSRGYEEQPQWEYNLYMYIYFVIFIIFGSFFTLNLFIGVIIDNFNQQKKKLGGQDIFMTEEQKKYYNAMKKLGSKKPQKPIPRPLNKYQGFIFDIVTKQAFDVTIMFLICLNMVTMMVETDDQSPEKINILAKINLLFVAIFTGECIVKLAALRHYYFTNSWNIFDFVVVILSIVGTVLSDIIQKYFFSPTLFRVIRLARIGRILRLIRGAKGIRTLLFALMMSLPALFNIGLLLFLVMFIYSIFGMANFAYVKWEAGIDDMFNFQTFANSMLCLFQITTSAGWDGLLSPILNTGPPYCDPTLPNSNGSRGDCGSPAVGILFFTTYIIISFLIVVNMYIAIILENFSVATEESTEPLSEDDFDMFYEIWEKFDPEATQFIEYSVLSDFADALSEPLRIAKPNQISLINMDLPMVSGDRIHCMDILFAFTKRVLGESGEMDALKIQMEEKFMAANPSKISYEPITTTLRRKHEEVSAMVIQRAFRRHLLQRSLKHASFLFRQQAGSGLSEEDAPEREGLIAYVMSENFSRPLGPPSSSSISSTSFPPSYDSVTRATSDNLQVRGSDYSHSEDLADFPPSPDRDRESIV

| SMILES | IC50 [1] [nM] | ratio of Nav 1.7 : Nav 1.5 potency (IonWorks) [2] |
| --- | --- | --- |
| O=S(=O)(Nc1nccs1)c1cc(Cl)c(NCCCCN2C[C@H]3CNCC[C@H]3C2)cc1F [Ex 1-23, 5-chloro-2-fluoro-4-({4-[(3aR,7aR)-octahydro-2H-pyrrolo[3,4-c]pyridin-2-yl]butyl}amino)-N-1,3-thiazol-2-ylbenzenesulfonamide] | 43 | > 770 |
| O=S(=O)(Nc1nccs1)c1cc(Cl)c(NCCCCNC2C[C@@H]3C[C@H]2CN3)cc1F (stereo partly drawn) [Ex 1-24, 4-({4-[(1S,4S)-2-azabicyclo[2.2.1]hept-5-ylamino]butyl}amino)-5-chloro-2-fluoro-N-1,3-thiazol-2-ylbenzenesulfonamide] | 17 | > 1940 |
| O=S(=O)(Nc1nccs1)c1cc(Cl)c(NCCCCN[C@@H]2[C@H]3CC[C@@H]2NC3)cc1F [Ex 1-25, 4-({4-[(1S,4S,7R)-2-azabicyclo[2.2.1]hept-7-ylamino]butyl}amino)-5-chloro-2-fluoro-N-1,3-thiazol-2-ylbenzenesulfonamide] | 21 | > 1590 |
| O=S(=O)(Nc1nccs1)c1cc(Cl)c(NCCCCNC2CNCC(c3ccccc3)C2)cc1F (stereo not drawn) [Ex 1-31, 5-chloro-2-fluoro-4-({4-[(5-phenylpiperidin-3-yl)amino]butyl}amino)-N-1,3-thiazol-2-ylbenzenesulfonamide] | 37 | > 890 |
| COc1cccc(CC2(CNCCCCNc3cc(F)c(S(=O)(=O)Nc4nccs4)cc3Cl)CCCN2)c1 (stereo not drawn) [Ex 1-34, 5-chloro-2-fluoro-4-{[4-({[2-(3-methoxy-benzyl)-pyrrolidin-2-yl]methyl}-amino)-butyl]amino}-N-1,3-thiazol-2-yl-benzenesulfonamide] | 64 | > 510 |
| N[C@@H]1CCCN(CCCCNc2cc(F)c(S(=O)(=O)Nc3nccs3)cc2Cl)C1 [Ex 1-35, 4-({4-[(3R)-3-aminopiperidin-1-yl]butyl}amino)-5-chloro-2-fluoro-N-1,3-thiazol-2-ylbenzenesulfonamide] | 190 | > 170 |
| N[C@@H]1CCN(CCCCNc2cc(F)c(S(=O)(=O)Nc3nccs3)cc2Cl)C1 [Ex 1-36, 4-({4-[(3R)-3-aminopyrrolidin-1-yl]butyl}amino)-5-chloro-2-fluoro-N-1,3-thiazol-2-ylbenzenesulfonamide] | 18 | > 1830 |
| N[C@H]1CCCN(CCCCNc2cc(F)c(S(=O)(=O)Nc3nccs3)cc2Cl)C1 [Ex 1-37, 4-({4-[(3S)-3-aminopiperidin-1-yl]butyl}amino)-5-chloro-2-fluoro-N-1,3-thiazol-2-ylbenzenesulfonamide] | 97 | > 340 |
| O=S(=O)(Nc1nccs1)c1cc(Cl)c(NCCCCN2CCCC3(CCCN3)C2)cc1F (stereo not drawn) [Ex 1-39, 5-chloro-4-{[4-(1,7-diazaspiro[4.5]dec-7-yl)butyl]amino}-2-fluoro-N-1,3-thiazol-2-ylbenzenesulfonamide] | 130 | > 250 |
| NC[C@H]1CCCN1CCCCNc1cc(F)c(S(=O)(=O)Nc2nccs2)cc1Cl [Ex 1-41, 4-({4-[(2R)-2-(aminomethyl)pyrrolidin-1-yl]butyl}amino)-5-chloro-2-fluoro-N-1,3-thiazol-2-ylbenzenesulfonamide] | 48 | > 690 |
| NCC1CCN(CCCCNc2cc(F)c(S(=O)(=O)Nc3nccs3)cc2Cl)C1 (stereo not drawn) [Ex 1-47, 4-({4-[3-(aminomethyl)pyrrolidin-1-yl]butyl}amino)-5-chloro-2-fluoro-N-1,3-thiazol-2-ylbenzenesulfonamide] | 22 | > 1500 |
| O=S(=O)(Nc1nccs1)c1cc(Cl)c(NCCCCN2CCC3CNCC3C2)cc1F (stereo not drawn) [Ex 1-48, 5-chloro-2-fluoro-4-{[4-(octahydro-5H-pyrrolo[3,4-c]pyridin-5-yl)butyl]amino}-N-1,3-thiazol-2-ylbenzenesulfonamide] | 23 | > 1434 |
| NC1CCN(CCCCNc2cc(F)c(S(=O)(=O)Nc3nccs3)cc2Cl)CC1 [Ex 1-49, 4-{[4-(4-aminopiperidin-1-yl)butyl]amino}-5-chloro-2-fluoro-N-1,3-thiazol-2-ylbenzenesulfonamide] | 33 | > 1000 |
| NCC1(c2ccccc2)CCN(CCCCNc2cc(F)c(S(=O)(=O)Nc3nccs3)cc2Cl)C1 (stereo not drawn) [Ex 1-50, 4-({4-[3-(aminomethyl)-3-phenylpyrrolidin-1-yl]butyl}amino)-5-chloro-2-fluoro-N-1,3-thiazol-2-ylbenzenesulfonamide] | 46 | > 717 |
| NCC1CN(CCCCNc2cc(F)c(S(=O)(=O)Nc3nccs3)cc2Cl)C1 [Ex 1-51, 4-({4-[3 (aminomethyl)azetidin-1-yl]butyl}amino)-5-chloro-2-fluoro-N-1,3-thiazol-2-ylbenzenesulfonamide] | 15 | > 2200 |
| O=S(=O)(Nc1nccs1)c1cc(Cl)c(NCCCCN2CCC3CCC(C2)N3)cc1F (stereo not drawn) [Ex 1-52, 5-chloro-4-{[4-(3,9-diazabicyclo[4.2.1]non-3-yl)butyl]amino}-2-fluoro-N-1,3-thiazol-2-ylbenzenesulfonamide] | 96 | > 343 |
| O=S(=O)(Nc1nccs1)c1cc(Cl)c(NCCCCN2CCCNCC2)cc1F [Ex 1-53, 5-chloro-4-{[4-(1,4-diazepan-1-yl)butyl]-amino}-2-fluoro-N-1,3-thiazol-2-yl-benzenesulfonamide] | 79 | > 418 |
| O=S(=O)(Nc1nccs1)c1cc(Cl)c(NC[C@H]2C[C@@H]3CN(C[C@@H]4CCCN4)C[C@@H]3C2)cc1F [Ex 6-8, 5-chloro-2-fluoro-4-[({(3aR,5R,6aS)-2-[(2S)-pyrrolidin-2-ylmethyl]octahydrocyclopenta[c]pyrrol-5-yl}methyl)amino]-N-1,3-thiazol-2-ylbenzenesulfonamide] | 39 | > 850 |
| O=S(=O)(Nc1nccs1)c1cc(Cl)c(NCCCC(Cc2ccccc2)NC[C@@H]2CCCN2)cc1F (stereo partly drawn) [Ex 6-9, 5-chloro-2-fluoro-4-[(5-phenyl-4-{[(2S)-pyrrolidin-2-ylmethyl]amino}pentyl)amino]-N-1,3-thiazol-2-ylbenzenesulfonamide] | 17 | 1530 |
| O=S(=O)(Nc1nccs1)c1ccc(NCCCCNC[C@@H]2CCCN2)c(C(F)(F)F)c1 [Ex 7-04, 4-[(4-{[(2S)-pyrrolidin-2-ylmethyl]amino}butyl)amino]-N-1,3-thiazol-2-yl-3-(trifluoromethyl)benzenesulfonamide] | 41 | > 800 |
| O=S(=O)(Nc1nccs1)c1ccc(NCCCCNC[C@@H]2CCCN2)c(Cl)c1 [Ex 7-12, 3-chloro-4-[(4-{[(2S)-pyrrolidin-2-ylmethyl]amino}butyl)amino]-N-1,3-thiazol-2-ylbenzenesulfonamide] | 27 | > 1200 |
| O=S(=O)(Nc1nccs1)c1cc(Cl)c(NCCCCNC[C@@H]2CC(F)(F)CN2)cc1F [Ex 8-2, (S)-5-chloro-4-((4-(((4,4-difluoropyrrolidin-2-yl)methyl)amino)butyl)amino)-2-fluoro-N-(thiazol-2-yl)benzenesulfonamide] | 59 | 460 |
| O=S(=O)(Nc1nccs1)c1cc(Cl)c(NCCCCNC[C@@H]2C[C@@H](c3ccccc3)CN2)cc1F [Ex 8-4, 5-chloro-2-fluoro-4-{[4-({[(2S,4S)-4-phenyl-pyrrolidin-2-yl]methyl}-amino)butyl]amino}-N-1,3-thiazol-2-yl-benzenesulfonamide] | 32 | > 1030 |
| O=S(=O)(Nc1nccs1)c1cc(Cl)c(NCCCCNC[C@@H]2C[C@H](Oc3ccccc3)CN2)cc1F [Ex 8-5, 5-chloro-2-fluoro-4-{[4-({[(2S,4S)-4-phenoxypyrrolidin-2-yl]methyl}amino)butyl]-amino}-N-1,3-thiazol-2-yl-benzenesulfonamide] | 40 | 425 |
